Assay results taken from ChEMBL document CHEMBL1201862, “PubChem BioAssay data set” (2004).
The source made the active and inactive calls.

Tests used:
[1] = intracellular Trypanosoma cruzi inhibitors in host cells – cell-based, plate reader, cherry-pick samples, set 3, dose response (AID 651818); type: functional;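 also: compounds incubated with infected cells for about four days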
[2] = molecular target: Induced myeloid leukemia cell differentiation protein Mcl-1 (Homo sapiens, UniProt Q07820); type: functional
Chain of Induced myeloid leukemia cell differentiation protein Mcl-1 (Q07820 whole entry): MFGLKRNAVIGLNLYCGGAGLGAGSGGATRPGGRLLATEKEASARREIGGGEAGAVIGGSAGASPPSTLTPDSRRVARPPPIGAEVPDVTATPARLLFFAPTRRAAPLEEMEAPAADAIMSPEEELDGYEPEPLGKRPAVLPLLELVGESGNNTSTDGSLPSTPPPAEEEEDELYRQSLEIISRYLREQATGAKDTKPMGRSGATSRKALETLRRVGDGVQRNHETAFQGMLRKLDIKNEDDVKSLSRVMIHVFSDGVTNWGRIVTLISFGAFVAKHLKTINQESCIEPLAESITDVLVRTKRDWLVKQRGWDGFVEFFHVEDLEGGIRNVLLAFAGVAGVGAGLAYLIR

[3] = molecular target: Nonstructural protein 1 (Influenza A virus, UniProt Q194T2); type: functional, Influenza A virus (A/California/07/2009(H1N1))
Chain of Nonstructural protein 1 (Q194T2 whole entry): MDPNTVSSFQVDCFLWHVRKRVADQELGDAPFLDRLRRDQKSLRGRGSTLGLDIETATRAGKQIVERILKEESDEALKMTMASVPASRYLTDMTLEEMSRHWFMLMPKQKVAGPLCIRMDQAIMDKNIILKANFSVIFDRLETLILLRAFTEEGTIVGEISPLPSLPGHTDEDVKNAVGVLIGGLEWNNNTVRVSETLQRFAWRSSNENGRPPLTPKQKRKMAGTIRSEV

[4] = molecular target: T1, DNA repair protein RAD52 homolog (Homo sapiens, UniProt P43351); type: functional, biochemical
T1 sequence (P43351 whole entry): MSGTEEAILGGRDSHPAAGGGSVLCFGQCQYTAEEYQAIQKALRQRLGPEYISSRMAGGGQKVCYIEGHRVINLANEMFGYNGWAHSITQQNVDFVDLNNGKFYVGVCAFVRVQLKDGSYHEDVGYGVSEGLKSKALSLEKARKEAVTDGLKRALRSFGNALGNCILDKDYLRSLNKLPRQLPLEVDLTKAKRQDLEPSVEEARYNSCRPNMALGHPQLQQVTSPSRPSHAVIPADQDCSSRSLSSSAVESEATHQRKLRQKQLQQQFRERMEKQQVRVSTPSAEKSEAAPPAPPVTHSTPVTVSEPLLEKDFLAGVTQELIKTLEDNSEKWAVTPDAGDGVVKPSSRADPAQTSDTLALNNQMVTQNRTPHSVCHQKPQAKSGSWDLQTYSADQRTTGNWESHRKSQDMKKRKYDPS

[5] = molecular target: Paired box protein Pax-8 (Homo sapiens, UniProt Q06710); assay: PAX8 transcriptional activity inhibition in RMG-I – RMG-I cells, luciferase, cherry-pick, dose response (AID 687027); type: functional, cell-based;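 also: luciferase reporter driven by Pax8 target thyroperoxidase promoter measured by SteadyGlo luminescence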
Chain of Paired box protein Pax-8 (Q06710 whole entry): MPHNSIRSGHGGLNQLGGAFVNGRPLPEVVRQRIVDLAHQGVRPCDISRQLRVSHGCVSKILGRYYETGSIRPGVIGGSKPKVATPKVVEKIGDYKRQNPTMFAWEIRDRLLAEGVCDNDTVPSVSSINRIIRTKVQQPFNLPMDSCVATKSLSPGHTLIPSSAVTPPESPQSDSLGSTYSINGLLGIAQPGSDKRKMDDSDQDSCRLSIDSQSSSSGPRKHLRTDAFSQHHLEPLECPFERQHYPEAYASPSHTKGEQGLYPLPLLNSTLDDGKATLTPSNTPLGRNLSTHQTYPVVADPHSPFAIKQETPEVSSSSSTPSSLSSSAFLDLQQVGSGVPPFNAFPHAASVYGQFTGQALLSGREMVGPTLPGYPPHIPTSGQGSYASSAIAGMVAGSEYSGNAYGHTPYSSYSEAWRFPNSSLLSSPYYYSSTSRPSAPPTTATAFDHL

[6] = OVCAR-3 cell viability loss – plate reader, dry powder samples, PAX8 inhibitor project, dose response (AID 743044); type: functional, cell-based
[7] = growth inhibition of yeast DHODH-expressing 3D7 parasites – SYBR Green, dry powder samples, dose response (AID 1159570); type: functional, cell-based;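 also: parasite growth measured after 72 hours of compound exposure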
[8] = toxicity to human HepG2 hepatoma cells – cell-based, plate reader, dry powder samples, cytotoxicity control, dose response (AID 1159569); type: functional;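 also: inhibitor potency with signal falling toward the positive control level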
[9] = P. falciparum Dd2 growth inhibitors, dose response, SYBR Green, cherry-picked samples (AID 1159567); type: functional, cell-based
[10] = Dd2 malaria parasite growth inhibition potency – SYBR Green, dry powder samples, dose response (AID 1159566); type: functional, cell-based;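 also: potency for growth inhibition with lower SYBR green DNA signal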
[11] = growth inhibition of PfATP4-mutant resistant parasites – NITD609-resistant line, SYBR Green, dry powder, dose response (AID 1159571); type: functional, cell-based;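 also: parasites synchronized at ring stage by sorbitol before testing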
[12] = molecular target: T2, Microphthalmia-associated transcription factor (Homo sapiens, UniProt O75030); assay: reducers of TRPM1 reporter luminescence, concentration series – cell-based, SK-MEL-5, cherry-picked, set 3, MITF inhibitor project, dose response (AID 493073); type: functional;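 also: SK-MEL-5 melanoma cells with luciferase driven by the MITF target TRPM1 promoter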
T2 sequence (O75030 whole entry): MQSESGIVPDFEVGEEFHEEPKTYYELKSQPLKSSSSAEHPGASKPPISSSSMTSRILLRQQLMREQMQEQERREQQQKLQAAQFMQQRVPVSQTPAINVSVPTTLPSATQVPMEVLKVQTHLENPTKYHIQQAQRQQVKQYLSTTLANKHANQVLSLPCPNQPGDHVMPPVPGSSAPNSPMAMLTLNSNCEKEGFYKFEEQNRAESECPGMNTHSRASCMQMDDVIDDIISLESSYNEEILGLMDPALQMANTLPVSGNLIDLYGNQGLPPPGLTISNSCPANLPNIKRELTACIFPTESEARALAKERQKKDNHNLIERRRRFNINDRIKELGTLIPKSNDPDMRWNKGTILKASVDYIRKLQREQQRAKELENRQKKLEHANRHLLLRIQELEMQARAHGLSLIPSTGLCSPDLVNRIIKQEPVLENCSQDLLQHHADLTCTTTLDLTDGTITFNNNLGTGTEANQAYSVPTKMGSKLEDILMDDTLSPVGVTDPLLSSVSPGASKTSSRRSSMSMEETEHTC

[13] = molecular target: T3, Short transient receptor potential channel 4 (Mus musculus, UniProt Q9QUQ5); assay: calcium entry via TRPC4 opening agents – cell-based, HEK293 TRPC4/mu-opioid, Fluo-4 calcium, dose response (AID 434937); type: functional
T3 sequence (Q9QUQ5 whole entry): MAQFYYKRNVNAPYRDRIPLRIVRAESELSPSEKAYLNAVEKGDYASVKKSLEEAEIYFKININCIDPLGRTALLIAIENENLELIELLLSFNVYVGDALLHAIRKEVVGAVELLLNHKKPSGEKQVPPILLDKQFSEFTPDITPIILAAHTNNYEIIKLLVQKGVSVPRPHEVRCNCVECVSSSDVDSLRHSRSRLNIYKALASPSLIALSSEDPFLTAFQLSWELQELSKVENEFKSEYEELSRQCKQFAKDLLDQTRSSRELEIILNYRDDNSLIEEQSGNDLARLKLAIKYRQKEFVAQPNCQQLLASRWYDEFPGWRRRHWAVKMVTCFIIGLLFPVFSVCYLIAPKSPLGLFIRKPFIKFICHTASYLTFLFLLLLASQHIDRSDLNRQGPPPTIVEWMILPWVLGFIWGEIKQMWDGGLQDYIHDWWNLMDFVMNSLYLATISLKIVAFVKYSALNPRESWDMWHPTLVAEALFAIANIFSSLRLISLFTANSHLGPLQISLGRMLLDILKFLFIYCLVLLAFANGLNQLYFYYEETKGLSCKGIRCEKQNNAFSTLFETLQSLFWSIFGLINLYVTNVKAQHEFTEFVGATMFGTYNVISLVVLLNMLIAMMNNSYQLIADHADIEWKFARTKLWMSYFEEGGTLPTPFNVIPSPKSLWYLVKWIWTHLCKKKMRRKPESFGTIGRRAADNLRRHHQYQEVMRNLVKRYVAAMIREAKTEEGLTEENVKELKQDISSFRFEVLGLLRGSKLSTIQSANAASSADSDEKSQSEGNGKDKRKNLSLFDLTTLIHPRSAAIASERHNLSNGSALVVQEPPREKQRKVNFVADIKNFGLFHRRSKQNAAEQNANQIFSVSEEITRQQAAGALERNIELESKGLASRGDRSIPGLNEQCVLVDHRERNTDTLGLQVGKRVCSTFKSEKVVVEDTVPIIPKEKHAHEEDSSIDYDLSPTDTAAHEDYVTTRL

[14] = toxicity to human hepatoma HepG2 cells – cell-based, cherry-picked samples, cytotoxicity control, dose response (AID 1159577); type: functional
[15] = molecular target: T4, Ubiquitin-conjugating enzyme E2 N (Homo sapiens, UniProt P61088); type: functional;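 also: Dose-response confirmation in a TR-FRET assay detecting UBC13-driven polyubiquitin chain formation, inhibition measured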
T4 sequence (P61088 whole entry): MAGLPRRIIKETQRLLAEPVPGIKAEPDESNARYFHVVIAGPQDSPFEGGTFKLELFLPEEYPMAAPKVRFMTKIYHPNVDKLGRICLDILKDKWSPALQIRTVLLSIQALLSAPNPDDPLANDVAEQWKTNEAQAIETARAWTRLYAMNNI

[16] = luciferase reporter signal suppression in cells – H4 neuroglioma cells, luminescence, dose response (AID 1990); type: functional, cell-based
[17] = Luminescence Cell-Based Dose Response HTS to Identify Inhibitors of 5'UTR Stem-Loop Driven Prion Protein mRNA Translation in H4 Neuroglioblastoma Cells. [Related pubchem assays: 1827 (Project Summary), 1813 (Primary HTS)]; type: functional
[18] = alpha-synuclein stem-loop luciferase translation blockers – H4 neuroglioma cells, luminescence, confirmation (AID 1988); type: functional, cell-based
[19] = molecular target: Cytochrome P450 2D6 (Homo sapiens, UniProt P10635);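 also: CYP2D6 member of a cytochrome P450 panel assay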
Chain of Cytochrome P450 2D6 (P10635 whole entry): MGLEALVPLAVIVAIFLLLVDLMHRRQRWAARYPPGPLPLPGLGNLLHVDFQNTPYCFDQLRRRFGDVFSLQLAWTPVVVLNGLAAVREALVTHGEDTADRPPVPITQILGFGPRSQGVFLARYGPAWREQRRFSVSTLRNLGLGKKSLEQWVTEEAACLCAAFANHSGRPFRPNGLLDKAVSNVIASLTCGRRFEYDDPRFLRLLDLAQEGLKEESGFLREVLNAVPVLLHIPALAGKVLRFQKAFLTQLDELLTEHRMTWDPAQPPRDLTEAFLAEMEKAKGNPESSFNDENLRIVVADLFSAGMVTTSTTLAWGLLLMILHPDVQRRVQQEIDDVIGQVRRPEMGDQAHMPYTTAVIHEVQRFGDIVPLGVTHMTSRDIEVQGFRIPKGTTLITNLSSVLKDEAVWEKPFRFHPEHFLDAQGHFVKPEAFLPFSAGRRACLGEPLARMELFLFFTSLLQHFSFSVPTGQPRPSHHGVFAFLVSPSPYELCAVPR

[20] = microbe, parasite or virus in culture; type: functional; conditions: Mycobacterium tuberculosis
[21] = test system: INS1; assay: INS-1E survival protection against cytokine death – cell-based, luminescence, retest, dose response (AID 449756); type: functional; conditions: Rattus norvegicus;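 also: cell death triggered by IL-1 beta plus TNF-alpha plus IFN-gamma mixture; protective hits raise ATP signal compared with cytokine alone wells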
[22] = Trypanosoma cruzi growth suppression in host cells – NIH3T3 host cells, beta-gal luminescence, confirmation (AID 2044); type: functional, cell-based;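 also: intracellular parasites grown in NIH/3T3 mouse fibroblasts as host cells; luminescent beta-galactosidase reporter signal from transgenic T. cruzi replicating inside host cells; inhibitors lower the luminescence signal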
[23] = NIH3T3 cell viability loss – ATP luminescence, mouse fibroblasts, counter-screen, dose response (AID 2010); type: functional, cell-based;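 also: cells exposed to compound for about 90 hours before reading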
[24] = molecular target: Luciferin 4-monooxygenase (Photinus pyralis, UniProt P08659); assay: inhibition of purified Photinus pyralis luciferase – biochemical, luminescence, dose response (AID 1891)
Chain of Luciferin 4-monooxygenase (P08659 whole entry): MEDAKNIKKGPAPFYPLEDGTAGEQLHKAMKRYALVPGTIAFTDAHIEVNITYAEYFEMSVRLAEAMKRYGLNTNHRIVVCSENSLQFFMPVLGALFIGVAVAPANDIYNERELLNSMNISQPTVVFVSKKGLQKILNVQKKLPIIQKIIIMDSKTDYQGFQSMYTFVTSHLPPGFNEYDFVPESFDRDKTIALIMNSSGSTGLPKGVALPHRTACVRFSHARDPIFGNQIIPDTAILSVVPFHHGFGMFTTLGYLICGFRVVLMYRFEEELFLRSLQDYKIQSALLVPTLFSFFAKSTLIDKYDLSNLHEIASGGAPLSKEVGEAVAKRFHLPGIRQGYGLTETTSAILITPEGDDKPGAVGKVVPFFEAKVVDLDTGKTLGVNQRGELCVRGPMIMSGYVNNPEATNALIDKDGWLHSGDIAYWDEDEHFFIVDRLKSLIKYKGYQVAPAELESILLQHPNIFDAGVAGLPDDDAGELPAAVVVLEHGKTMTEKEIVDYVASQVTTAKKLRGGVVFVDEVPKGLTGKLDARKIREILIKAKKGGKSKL

[25] = Luminescence Cell-Based Dose Confirmation HTS to Identify Inhibitors of Platelet Dense Granule Release. [Related pubchem assays: 1663 (Primary HTS), 1678 (Summary of Project)]; type: functional

C[C@H]1CN([C@@H](C)CO)C(=O)c2cccc(NC(=O)c3nc4ccccc4s3)c2O[C@H]1CN(C)C(=O)Nc1ccc(C(F)(F)F)cc1
AC50 [1]: 3.86 µM (active)

C[C@@H]1CN([C@H](C)CO)C(=O)Cc2cc(NC(=O)Cc3cn(C)c4ccccc34)ccc2O[C@H]1CN(C)Cc1ccc(-c2ccccc2)cc1
AC50 [1]: 4.23 µM (active)

Cc1ccc(NS(=O)(=O)c2cc([N+](=O)[O-])ccc2NNC(=S)Nc2cccc(Cl)c2)c(C)c1
IC50 [2]: 5.74 µM (not active) | IC50 [3]: 17 µM (active)

C[N+]1(CC(=O)NNc2c3ccccc3nc3ccccc23)CCOCC1
AC50 [4]: 2.83 µM (active)

COc1ccc(S(=O)(=O)Nc2ccc3c(c2)C(=O)N([C@H](C)CO)C[C@@H](C)[C@@H](CN(C)Cc2ccc(C(F)(F)F)cc2)OCCCC[C@H](C)O3)cc1
AC50 [5]: 3.43 µM (active) | AC50 [6]: 5.6 µM (active)

COc1cccc(NC(=O)N2[C@H](CO)[C@H](c3ccccc3)[C@H]2CNCC(C)C)c1
AC50 [7]: 1.35 µM (active) | AC50 [8]: 85.6 µM (active) | AC50 [9]: 1.78 µM (active) | AC50 [10]: 0.974 µM (active) | AC50 [11]: 1.26 µM (active)

O=[N+]([O-])c1ccc(N=Nc2ccc(O)c3ccccc23)cc1
IC50 [3]: 25.9 µM (active)

S=C=Nc1cccc(C2(N3CCCCC3)CCCCC2)c1 [METAPHIT METHANESULFONATE]
AC50 [12]: 7.36 µM (active)

CCOc1ccccc1C1CC(c2ccc(Cl)cc2)Nc2nc(N)nn21 (configuration not stated)
EC50 [13]: 11.9 µM (active)

COc1cccc(CN2CC3(C2)CN(C(=O)Nc2ccc(F)cc2)[C@@H](CO)c2c3c3ccc(OC)cc3n2C)c1
AC50 [9]: 2.98 µM (active) | AC50 [14]: 11.8 µM (active)

CC(N)Cc1c[nH]c2cc3c(cc12)OCCO3 (configuration not stated)
EC50 [13]: 1.33 µM (active)

COc1ccc(CN(C)C[C@@H]2OCCCC[C@@H](C)Oc3ccc(NC(=O)Nc4ccc(C(F)(F)F)cc4)cc3C(=O)N([C@H](C)CO)C[C@@H]2C)cc1
AC50 [1]: 2.48 µM (active)

CC1CN(C(=O)CCC(=O)NCCCN2CCC(Cc3ccccc3)CC2)c2cc(Cl)ccc2O1 (configuration not stated)
IC50 [15]: > 20 µM (inactive) | AC50 [12]: 16.2 µM (active)

O=C(CN1C(=O)C2CCCCC2C1=O)Nc1nc(-c2ccccn2)cs1 (configuration not stated)
EC50 [16]: > 120 µM (not active) | EC50 [17]: 14.3 µM (active) | EC50 [18]: > 120 µM (not active) | IC50 [3]: 16 µM (active)

COc1ccc(CNn2c(C)nc3ccccc3c2=O)cc1
IC50 [15]: > 20 µM (inactive) | AC50 [19]: 25.1 µM (inconclusive)

Cc1ccc(-c2ccc([C@@H]3[C@@H]4CN(Cc5cccnc5)C[C@H]3N4)cc2)cc1
AC50 [9]: 0.457 µM (active) | AC50 [14]: 9.99 µM (active)

CC(CC(=O)c1ccc(F)cc1)N1CCN(c2ccccc2)CC1 (configuration not stated)
AC50 [4]: 34.3 µM (active)

CC(CN1CCCC(C(N)=O)C1)c1ccccc1 (configuration not stated)
EC50 [13]: 1.19 µM (active)

CCN(CCCNS(=O)(=O)c1cc(-c2cc(C)no2)ccc1C)Cc1ccccc1
EC50 [13]: 0.299 µM (active)

C1CCCCCC(NCCN2CCNCC2)CCCCC1
AC50 [4]: 23.1 µM (active)

COC(=O)C1=C(c2ccc(OCc3ccccc3)cc2)C[C@@H]2CC[C@H]1N2C(=O)NC1CCN(Cc2ccccc2)CC1
CC50 [20]: 17.6 µM (active) | IC50 [15]: > 20 µM (inactive) | AC50 [21]: 3.96 µM (active)

Cc1cc2ccccc2n1CCNC(=O)C(C)Oc1ccccc1 (configuration not stated)
EC50 [22]: 0.705 µM (active) | EC50 [23]: 13.8 µM (active) | IC50 [3]: 64.6 µM (active)

C[C@H](CO)N1C[C@H](C)[C@H](CN(C)C(=O)Nc2ccc(F)cc2)Oc2c(NC(=O)Nc3cccc4ccccc34)cccc2C1=O
AC50 [1]: 1.79 µM (active)

NCCCC[C@@H]1NC(=O)c2cc([N+](=O)[O-])cc(F)c2NCCCC[C@@H](C(N)=O)NC(=O)[C@H](CCC(N)=O)NC1=O
IC50 [15]: > 20 µM (inactive) | AC50 [4]: 8.88 µM (active)

C[C@@H]1CN([C@H](C)CO)C(=O)c2cccc(NC(=O)CCCCCC(=O)Nc3ccccc3N)c2O[C@@H]1CN(C)Cc1ccc(-c2ccccc2)cc1
AC50 [1]: 4.22 µM (active)

COc1ccc2nc(NN=C(C)c3ccccn3)cc(C)c2c1
IC50 [3]: 7.94 µM (active)

C[C@H](CO)N1C[C@H](C)[C@H](CN(C)C(=O)Nc2cccc3ccccc23)Oc2c(NC(=O)Nc3ccc(C(F)(F)F)cc3)cccc2C1=O
AC50 [1]: 6.42 µM (active)

COc1ccccc1S(=O)(=O)N(C)C[C@@H]1Oc2cc(C#CCC(C)C)ccc2S(=O)(=O)N([C@@H](C)CO)C[C@H]1C
AC50 [7]: 0.521 µM (active) | AC50 [8]: > 100 µM (inactive) | AC50 [9]: 0.652 µM (active) | AC50 [10]: 0.609 µM (active) | AC50 [11]: 0.331 µM (active)

c1ccc(-c2ccc([C@@H]3[C@@H]4CN(Cc5cccnc5)C[C@H]3N4)cc2)cc1
AC50 [9]: 0.472 µM (active) | AC50 [14]: 9.31 µM (active)

C#Cc1cccc(C(=O)NC2CCCN(C3Cc4ccccc4C3)C2)c1 (configuration not stated)
EC50 [13]: 0.596 µM (active)

COc1cccc(/C=N/Nc2ccnc(O)n2)c1O
EC50 [24]: > 112 µM (not active) | EC50 [25]: 10.7 µM (active) | IC50 [3]: 10.6 µM (active) | AC50 [21]: 0.67 µM (active)
